Measured values taken from ChEMBL document CHEMBL1240305, “Alkylation of duplex DNA in nucleosome core particles by duocarmycin SA and yatakemycin” (Nat Chem Biol, 2006).
Activity calls are given as the source filed them. The rule behind the calls is not given here.

How the values were obtained:
Format in all cases: nucleic-acid assay
Nucleic Acid [1] = test: Induction of thermal cleavage in protein free alpha satellite DNA 5'-GAAACT-3' at 10 uM at 25 degC after 17 hrs by non-denaturating gel electrophoresis
Nucleic Acid [2] = test: Binding affinity to alpha satellite DNA assessed as neucleosome reconstitution after 17 hrs at 25 degC by non-denaturating gel electrophoresis
Nucleic Acid [3] = test: Induction of thermal cleavage in alpha satellite DNA 5'-GAAACT-3' in […] at 10 uM at 25 degC after 17 hrs by non-denaturating gel electrophoresis
Nucleic Acid [4] = test: Induction of thermal cleavage in protein free alpha satellite DNA 5'-GGAAAC-3' at 10 uM at 25 degC after 17 hrs by non-denaturating gel electrophoresis
Nucleic Acid [5] = test: Induction of thermal cleavage in alpha satellite DNA at 10 uM at 25 degC after 30 mins by non-denaturating gel electrophoresis
Nucleic Acid [6] = test: Induction of thermal cleavage in alpha satellite DNA at 10 uM at 25 degC after 1 hr by non-denaturating gel electrophoresis
Nucleic Acid [7] = test: Induction of thermal cleavage in alpha satellite DNA 5'-GGAAAC-3' in […] at 10 uM at 25 degC after 17 hrs by non-denaturating gel electrophoresis
Nucleic Acid [8] = test: Induction of thermal cleavage in protein free alpha satellite DNA 5'-CAAAAG-3' at 10 uM at 25 degC after 1 hr by non-denaturating gel electrophoresis
Nucleic Acid [9] = test: Induction of thermal cleavage in alpha satellite DNA 5'-CAAAAG-3' in […] at 10 uM at 25 degC after 17 hrs by non-denaturating gel electrophoresis
Nucleic Acid [10] = test: Induction of DNA alkylation-mediated […] at 25 degC after 16 hrs by non-denaturating gel electrophoresis

Activity (Nucleic Acid [1]) | Activity (Nucleic Acid [2]) | Activity (Nucleic Acid [3]) | Activity (Nucleic Acid [4]) | Activity (Nucleic Acid [7]) | Activity (Nucleic Acid [8]) | Activity (Nucleic Acid [9]) | Activity (Nucleic Acid [10]) | Compound | Activity (Nucleic Acid [5]) [×10⁻⁵ M] | Activity (Nucleic Acid [6])
Active | Active | Active | Active | – | – | – | – | COc1cc2[nH]c(C(=O)N3C[C@@H]4C[C@]45C3=CC(=O)c3[nH]c(C(=O)N4CCc6c4c(O)c(OC)c4[nH]c(C(=O)SC)cc64)cc35)cc2cc1O | – | –
– | Active | – | Active | Active | Active | Active | Active | COc1cc2[nH]c(C(=O)N3C[C@H]4C[C@@]45C3=CC(=O)c3[nH]c(C(=O)N4CCc6c4c(O)c(OC)c4[nH]c(C(=O)SC)cc64)cc35)cc2cc1O | – | –

Compound | Activity (Nucleic Acid [1]) | Activity (Nucleic Acid [2]) | Activity (Nucleic Acid [3]) | Activity (Nucleic Acid [4]) | Activity (Nucleic Acid [7]) | Activity (Nucleic Acid [8]) | Activity (Nucleic Acid [9]) | Activity (Nucleic Acid [10]) | Activity (Nucleic Acid [5]) [×10⁻⁵ M] | Activity (Nucleic Acid [6])
COC(=O)c1cc2c([nH]1)C(=O)C=C1N(C(=O)c3cc4cc(OC)c(OC)c(OC)c4[nH]3)C[C@H]3C[C@]123 | – | Active | – | Active | – | – | – | – | 1 | Active
